Assay results published in patent US10732171B2, “Human skin sample methods and models for validating hypotheses for mechanisms driving skin pigmentation” (The Procter & Gamble Company, priority 2011, dated 2020).

Legend:
[1] = system: rat melanoma line known to produce melanin; experiment: total melanin assay in melanoma cell culture; type: cell-based; details: rat melanoma cell cultures; compared to controls
Protocol: (§1) The ex-vivo screening method has provided identification of agents consistent with in-vitro studies and which have proven positive clinically. One such example is hexyldecanol. […] For example, total melanin assays were performed using a rat melanoma line known to produce melanin. […] Therefore, promising tone agents such as hexyldecanol identified from the in-vitro model and the ex-vivo model have been tested in clinical settings.

[2] = system: tone genes; experiment: Human Ex-vivo Pre-Clinical Model, fold regulation changes by clinical formulations; type: cell-based; details: FIGS. 25a and 25b
Protocol: FIGS. 25a and 25b show two respective tables showing ex-vivo model fold regulation changes indicating significant down-regulation by clinical formulations in the Human Ex-vivo Pre-Clinical Model.
as §1

[3] = system: facial skin tone (spots, melanin evenness); experiment: 9-week clinical study, randomized, double-blind, vehicle-controlled, split-face; type: in vivo, human
Source text: For example, hexyldecanol was compared to vehicle controls and positive controls (5% Niacinamide+1% undecylenoyl phenylalanine) through a 9-week period. Specifically the trial included a 9-week clinical study with a randomized, double-blind, round robin, vehicle-controlled, split-face design, including one week normalization period whereby 330 subjects received test product.

[4] = system: tone genes of interest; experiment: ex-vivo tissue culture exposed to compounds known to stimulate the pigmentation pathway, tone gene regulation; type: cell-based, human; details: p≤0.1, minimum of 2-10 experiments each
[5] = system: 9 epidermal tone genes; experiment: endogenously driven ex-vivo human skin tissue, regulation of tone genes (mRNA/PCR) vs untreated control; type: cell-based; details: number of epidermal genes regulated, endogenously driven tissue sample, 37° C. and 70% humidity, 2-10 experiments each
Protocol: Referring to FIGS. 11 to 15, examples are shown for the regulation of the 9 epidermal tone genes against an untreated control in an endogenously driven ex-vivo tissue system at 37° C. and 70% humidity for niacinamide, hexamidine, N-Acetyl glucosamine, kojic acid, tranexamic acid, and undecylenoyl phenylalanine (2-10 experiments each). […] For instance, out of the 9 epidermal genes, at least one compound (Hexamidine) regulated 9 genes (with a statistical significance of p<0.1 or better) while two compounds regulated 5 or fewer genes (with a p<0.1 or better). Table 1 below summarizes the number of epidermal genes regulated by certain materials in an endogenously driven tissue sample with a statistical significance of p≤0.1.
Culturing involved setting up culture plates: putting 2.5 ml of media or treatment into each well of a 6-well tissue plate, adding one Millicell culture insert to each well, and putting 100 μl of 1×DMEM on the center of each insert membrane. Squares were selected randomly placed into each of the inserts (one piece of skin per insert), on top of the media on the membrane. The plates were stored at either 33° C. (though an additional non-limiting example would be 37° C. depending on the experiment endpoint). […]
Culture and treatment of the model comprised replicates of n=5 (though replicates of additional quantities may be used such as n=6). […]

[6] = system: 9 epidermal tone genes; experiment: Stem Cell Factor/Endothelin 1 driven ex-vivo human skin tissue, regulation of tone genes vs untreated control; type: cell-based; details: number of the 9 epidermal genes regulated, Stem Cell Factor/Endothelin 1 driven tissue sample, 37° C. and 70% humidity
Protocol: Referring to FIGS. 19 to 23, examples (of 2-10 experiments each) are shown for the regulation of the 9 epidermal tone genes against an untreated control in ex-vivo tissue driven by the combination of Stem Cell Factor and Endothelin at 37° C. and 70% humidity for niacinamide, hexamidine, N-Acetyl glucosamine, kojic acid, tranexamic acid, and undecylenoyl phenylalanine. […] For instance, out of the 9 epidermal genes, at least one compound (undecylenoyl phenylalanine) regulated 5 genes (with a statistical significance of p<0.1 or better) while two compounds regulated 2 or fewer genes (with a p<0.1 or better). Table 2 below summarizes the number of epidermal genes regulated by certain materials in a Stem Cell Factor/Endothelin 1 driven tissue sample with a statistical significance of p≤0.1.
In example embodiments, tone is driven by application of stem cell factor and/or endothelin (with skin preparation, culturing, and mRNA processing being completed as previously described). In an example embodiment, skin samples are placed within 6-well plates, with 2.5 ml of media per well. A concentration of eighty nanograms per milliliter of stem cell factor as well as eighty nanograms per milliliter of endothelin was applied to tissue in the wells, with the media being refreshed daily. The culture was maintained for seven days. […]

CCCCCCCCC(CO)CCCCCC (stereo not drawn) [Hexyldecanol, hexyldecanol]
total melanin produced [1]: decreased total melanin
gene regulation in ex-vivo model [2]: down-regulation
overall comparison to vehicle ([3]; significant if p<0.10 (1-sided) vs. vehicle): statistically better than vehicle controls
melanin evenness ([3]; versus vehicle control): significantly different from controls
spot area fraction (total area of spots per face) ([3]; versus vehicle control): decreased versus the control group

Stem Cell Factor: compound known to stimulate the pigmentation pathway; paracrine agent
regulation of tone genes of interest [4]: up regulate one or more tone genes of interest

tranexamic acid
# Genes (out of 9) with p ≤ 0.1 [5]: 7
# of Genes with p ≤ 0.1 [6]: 3

α-MSH [reference compound]
regulation of tone genes of interest [4]: up regulate one or more tone genes of interest
